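48-hour exposure; five concentrations; linearly interpolated endpoints. Here, GI50 denotes the concentration required for 50% inhibition of growth. At the TGI there is no net growth.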
Columns and labels:
Assay in all cases: growth of human tumour cells (NCI), 48 h
RPMI-8226 leukemia = system: RPMI-8226 leukemia
SF-295 CNS = system: SF-295 CNS
CAKI-1 renal = system: CAKI-1 renal
CCRF-CEM leukemia = system: CCRF-CEM leukemia
EKVX NSCLC = system: EKVX NSCLC
NCI-H522 lung = system: NCI-H522 lung
MDA-MB-231 breast = system: MDA-MB-231 breast
LOX IMVI melanoma = system: LOX IMVI melanoma
SNB-19 CNS = system: SNB-19 CNS
ACHN renal = system: ACHN renal
UACC-257 melanoma = system: UACC-257 melanoma
UO-31 renal = system: UO-31 renal
K-562 leukemia = system: K-562 leukemia
IGROV1 ovarian = system: IGROV1 ovarian
SF-539 CNS = system: SF-539 CNS
MDA-MB-435 = system: MDA-MB-435
A549 NSCLC = system: A549 NSCLC
NCI/ADR-RES ovarian = system: NCI/ADR-RES ovarian
COLO 205 colon = system: COLO 205 colon
HOP-92 NSCLC = system: HOP-92 NSCLC
SK-OV-3 ovarian = system: SK-OV-3 ovarian
RXF 393 renal = system: RXF 393 renal
NCI-H226 lung = system: NCI-H226 lung
T-47D breast = system: T-47D breast
SR leukemia = system: SR leukemia
HS 578T breast = system: HS 578T breast
U251 CNS = system: U251 CNS
SK-MEL-28 melanoma = system: SK-MEL-28 melanoma
NCI-H460 lung = system: NCI-H460 lung

How did the GI50 (RPMI-8226 leukemia) turn out when O=c1[nH]ccc2nc(N3CCC(O)CC3)nc(Nc3ccc(N4CCOCC4)cc3)c12 was run?
The GI50 was > 100 µM.

And the TGI (RPMI-8226 leukemia)?
The TGI was > 100 µM.

What about the GI50 (SF-295 CNS) of the same compound?
Its GI50 is > 100 µM.

And the TGI (SF-295 CNS)?
The TGI was > 100 µM.

And the GI50 (CAKI-1 renal)?
The GI50 was 0.367 µM.

And the TGI (CAKI-1 renal)?
The TGI was > 100 µM.

What about the GI50 (CCRF-CEM leukemia) of the same compound?
The GI50 was 28.3 µM.

What about the TGI (CCRF-CEM leukemia) of the same compound?
The TGI was > 100 µM.

And the GI50 (EKVX NSCLC)?
Its GI50 is > 38.3 µM.

And the TGI (EKVX NSCLC)?
The TGI was > 100 µM.

And the GI50 (NCI-H522 lung)?
The GI50 was > 100 µM.

And the TGI (NCI-H522 lung)?
The TGI was > 100 µM.

What about the GI50 (MDA-MB-231 breast) of the same compound?
The GI50 was 7.41 µM.

What about the TGI (MDA-MB-231 breast) of the same compound?
The TGI was > 100 µM.

And the GI50 (LOX IMVI melanoma)?
Its GI50 is 1.38 µM.

What about the TGI (LOX IMVI melanoma) of the same compound?
The TGI was > 100 µM.

And the GI50 (SNB-19 CNS)?
Its GI50 is > 78.8 µM.

What about the TGI (SNB-19 CNS) of the same compound?
The TGI was > 100 µM.

And the GI50 (ACHN renal)?
Its GI50 is 0.797 µM.

And the TGI (ACHN renal)?
Its TGI is > 100 µM.

What about the GI50 (UACC-257 melanoma) of the same compound?
Its GI50 is > 100 µM.

What about the TGI (UACC-257 melanoma) of the same compound?
Its TGI is > 100 µM.

What about the GI50 (UO-31 renal) of the same compound?
The GI50 was 0.374 µM.

And the TGI (UO-31 renal)?
The TGI was > 100 µM.

What about the GI50 (K-562 leukemia) of the same compound?
The GI50 was > 100 µM.

And the TGI (K-562 leukemia)?
Its TGI is > 100 µM.

What about the GI50 (IGROV1 ovarian) of the same compound?
The GI50 was 0.584 µM.

And the TGI (IGROV1 ovarian)?
Its TGI is > 100 µM.

And the GI50 (SF-539 CNS)?
Its GI50 is 2.85 µM.

And the TGI (SF-539 CNS)?
Its TGI is 11.2 µM.

What about the GI50 (MDA-MB-435) of the same compound?
Its GI50 is 0.744 µM.

And the TGI (MDA-MB-435)?
The TGI was > 100 µM.

What about the GI50 (A549 NSCLC) of the same compound?
Its GI50 is 3.9 µM.

What about the TGI (A549 NSCLC) of the same compound?
The TGI was > 100 µM.

And the GI50 (NCI/ADR-RES ovarian)?
Its GI50 is > 100 µM.

What about the TGI (NCI/ADR-RES ovarian) of the same compound?
Its TGI is > 100 µM.

What about the GI50 (COLO 205 colon) of the same compound?
The GI50 was 1.71 µM.

What about the TGI (COLO 205 colon) of the same compound?
Its TGI is 5.05 µM.

What about the GI50 (HOP-92 NSCLC) of the same compound?
Its GI50 is 0.566 µM.

And the TGI (HOP-92 NSCLC)?
Its TGI is 5.02 µM.

And the GI50 (SK-OV-3 ovarian)?
Its GI50 is 0.59 µM.

What about the TGI (SK-OV-3 ovarian) of the same compound?
Its TGI is > 100 µM.

And the GI50 (RXF 393 renal)?
Its GI50 is 1.74 µM.

What about the TGI (RXF 393 renal) of the same compound?
The TGI was 7.5 µM.

And the GI50 (NCI-H226 lung)?
The GI50 was > 100 µM.

And the TGI (NCI-H226 lung)?
Its TGI is > 100 µM.

And the GI50 (T-47D breast)?
The GI50 was > 100 µM.

And the TGI (T-47D breast)?
Its TGI is > 100 µM.

What about the GI50 (SR leukemia) of the same compound?
The GI50 was 3.14 µM.

And the TGI (SR leukemia)?
Its TGI is > 100 µM.

And the GI50 (HS 578T breast)?
The GI50 was 2.01 µM.

And the TGI (HS 578T breast)?
The TGI was 9.03 µM.

And the GI50 (U251 CNS)?
The GI50 was > 81 µM.

And the TGI (U251 CNS)?
The TGI was > 100 µM.

What about the GI50 (SK-MEL-28 melanoma) of the same compound?
Its GI50 is > 100 µM.

And the TGI (SK-MEL-28 melanoma)?
Its TGI is > 100 µM.

What about the GI50 (NCI-H460 lung) of the same compound?
The GI50 was 2.38 µM.
